Data: patent US6673561B1, “Diagnostic test for thrombotic or thromboembolic disease” (Regents of the University of California, priority 1999, dated 2004)
Entries after “also recorded” stand apart in the source; their conditions may differ. Each block holds one substance with its values, some of them ahead of it.

Columns and labels:
[1] = Urinary FPBtot before and during anticoagulation in VTE patients (Example 6); assay type: in vivo, human
From the text: Consecutive patients referred to the VTE service in whom the diagnosis of DVT and/or PE is confirmed (based on the criteria described above) are enrolled. Prior to therapy, blood and urine samples are collected for measurement of FPBtot (and other FPB measurements described above). Patients are then be treated with intravenous heparin (80 units/kg bolus, 18 units/kg/hr infusion), with the dose adjusted per protocol to keep aPTT 1.5-2.5 times the control values. As soon as steady-state “therapeutic doses” of heparin are maintained, blood and urine are collected again and the same parameters are measured. In addition, plasma aPTT, anti-Xa and anti-thrombin measurements are made as previously described (Morris et al. 1998).
For each patient, the difference between urinary and plasma FPBtot levels, measured before and after anticoagulation, is recorded. The mean reduction in FPBtot levels after anticoagulation is calculated. The required sample size is estimated based on the preliminary data described below: The mean (+/−SD) decrease in urinary FPBtot during anticoagulation was 60 ng/ml (+/−85.7 ng/ml). Assuming similar standard deviations for the VTE patients to be studied, thirty-seven pairs of samples are required in order to detect a 50% decrease in the levels after anticoagulation, with an alpha of 0.01 and a power of 95%.

[2] = system: experimentally induced thrombi; experiment: Canine experimental thrombosis model, FPBtot in plasma and urine (Example 2); assay type: in vivo, dog; details: heparin bolus 300 units/kg, infusion 90 units/kg/hr after embolization, three dogs
From the text: Adult mongrel dogs were anesthetized and their native fibrinogen depleted. After the ancrod has been eliminated from the circulation, during a time when the native fibrinogen activity is minimal, experimental thrombi are induced as previously described (Morris et al. 1997b). The dogs are anesthetized with halothane, intubated and mechanically ventilated to maintain arterial blood gases within normal limits. […] After this, they were transfused with 6 grams of purified human fibrinogen in normal saline to achieve a fibrinogen level of at least 300 mg/dl. Under these conditions, fibrinogen levels were maintained at >200 mg/dl throughout the study period.
Double balloon catheters were advanced via hind-leg saphenous veins to the femoral veins on each side. The balloons were then inflated, creating a 5 ml sealed chamber within the veins. […]
Blood and urine samples were collected into titrated tubes (containing protease inhibitors) at baseline, after defibrinogenation, at regular intervals after thrombus induction, and after anticoagulation. […] All samples were stored at […] until analyzed. FPBtot levels in urine and ultrafiltrated plasma are determined by immunoassay as described above.
The means and standard deviations of the FPBtot levels, as determined by immunoassay, associated with each time point are calculated. […]

[3] = system: femoral vein thrombi / pulmonary emboli; experiment: Canine fibrinogen-replacement thrombosis and pulmonary embolism model, FPB in plasma and urine (Example 3); assay type: in vivo, dog; details: n=3
Protocol: A competitive ELISA was developed for determination of the FPB concentration in plasma and urine ultrafiltrates. Unless otherwise noted, all steps were performed at room temperature, and the microplates were washed three times in between each step with 0.02 M NaH2PO4, 0.15 M NaCl, 1 mM EDTA, pH 7.4 (PNE) containing 0.1% tween-20. Microplate wells were first coated with synthetic FPB (2 μg/ml in 0.2 M NaHCO3, 100 μl/well) overnight at 4 C., and then “blocked” with 1% BSA in PNE (PNEA) for one hour. Meanwhile, 20 μl of ultrafiltered samples and synthetic FPB standards (1.56-100 ng/ml) were pre-incubated separately with 200 μl of FPB antiserum (1:2500) in polypropylene microfuge tubes for one hour. Dilutions of the FPB standard and antiserum were prepared in dilution buffer (PNEA containing 0.1% tween-20). At the end of the pre-incubation period, 100 μl of each mixture were applied to duplicate FPB-coated wells and incubated for one hour. […] The reaction was stopped by addition of an equal volume of 3 N H2SO4, and the absorbance (490 nm) of each well was measured in a microplate reader. The concentration of FPB in the samples was interpolated from a standard curve obtained by plotting the FPB concentration of each standard versus the corresponding absorbance. […]

[4] = system: FPB antiserum (R4097, bleed I3); experiment: Competitive ELISA for specificity of the FPB antiserum (competitor in solution vs surface-bound synthetic human FPB); assay type: binding, rabbit; details: for competition / cross-reaction with FPB antiserum (in words): competitor in solution vs surface-bound synthetic human FPB; for cross-reactivity, defined as IC50 of FPB divided by IC50 of competitor times 100: FPB antiserum, competitive ELISA; for IC50: FPB antiserum 1:2500, competitive ELISA, read-out: IC50, competition for antibody binding to surface-bound synthetic human FPB
Protocol: A competitive ELISA was developed to evaluate the specificity of the FPB antiserum. Unless otherwise noted, all steps were performed at room temperature, and the microplates were washed three times in between each step with 0.02 M NaH2PO4, 0.15 M NaCl, 1 mM EDTA, pH 7.4 (PNE) containing 0.1% tween-20. Microplate wells were first coated with synthetic human FPB ([…] in 0.2 M NaHCO3, […]) overnight at 4 C., and then “blocked” with 1% BSA in PNE (PNEA) for one hour. Meanwhile, serial dilutions of each competitor were prepared. The following competitors, all of human origin except where noted, were tested: native FPB (human and canine), synthetic FPB, synthetic des-arg FPB, synthetic fibrinopeptide A, and purified fibrinogen. […] of each competitor dilution were pre-incubated separately with […] of FPB antiserum (1:2500) in polypropylene microfuge tubes for 90 min. Dilutions of the competitors and of antiserum were prepared in dilution buffer (PNEA containing 0.1% tween-20). At the end of the pre-incubation period, 100 mL of each mixture were applied to duplicate FPB-coated wells and incubated for 90 min. After washing, 100 mL of peroxidase-conjugated goat anti-rabbit IgG detecting antibody (1:5000 in dilution buffer) were added to each well and incubated for one hour. After a final wash, each well was developed with 100 ml of OPD substrate solution for exactly five minutes. The reaction was stopped by addition of an equal volume of 3 N H2SO4, and the absorbance (490 nm) of each well was measured in the microplate reader.
A competitive ELISA was developed for determination of the FPB concentration in plasma and urine ultrafiltrates. Unless otherwise noted, all steps were performed at room temperature, and the microplates were washed three times in between each step with 0.02 M NaH2PO4, 0.15 M NaCl, 1 mM EDTA, pH 7.4 (PNE) containing 0.1% tween-20. Microplate wells were first coated with synthetic FPB (2 μg/ml in 0.2 M NaHCO3, 100 μl/well) overnight at 4 C., and then “blocked” with 1% BSA in PNE (PNEA) for one hour. Meanwhile, 20 μl of ultrafiltered samples and synthetic FPB standards (1.56-100 ng/ml) were pre-incubated separately with 200 μl of FPB antiserum (1:2500) in polypropylene microfuge tubes for one hour. Dilutions of the FPB standard and antiserum were prepared in dilution buffer (PNEA containing 0.1% tween-20). At the end of the pre-incubation period, 100 μl of each mixture were applied to duplicate FPB-coated wells and incubated for one hour. After washing, 100 μl of peroxidase-conjugated goat anti-rabbit IgG detecting antibody (1:5000 in dilution buffer) were added to each well and incubated for one hour. After a final wash, each well was developed with 100 μl of OPD substrate solution for exactly five minutes. The reaction was stopped by addition of an equal volume of 3 N H2SO4, and the absorbance (490 nm) of each well was measured in a microplate reader. The concentration of FPB in the samples was interpolated from a standard curve obtained by plotting the FPB concentration of each standard versus the corresponding absorbance. If sample values exceeded the upper limit of the standard curve, those samples were re-tested after appropriate dilution with dilution buffer. The intra- and inter-assay coefficients of variation for the FPB assay were 14.1% and 5.0%, respectively. The competitive ELISA was also used to assess the cross-reactivity of the FPB antiserum with human fibrinogen, fibrinopeptide A (FPA), des-arg FPB, and canine FPB.

Substance: heparin
- urinary levels of FPB during anticoagulation (in words) ([1]; all but one patient): significantly decreased
- mean decrease in urinary FPBtot during anticoagulation ([1]; preliminary data, mean (+/-SD)): 60 ng/mL
- thrombosis after excess heparin [2]: thrombosis is halted
- rise in plasma FPB following embolization ([3]; heparin iv 300 units/kg bolus, 90 units/kg/hr, one hour prior to embolization): completely suppressed
- initial peak of total urinary FPB ([3]; heparin iv one hour prior to embolization): suppressed

Substance: native canine FPB: FPB derived from purified canine fibrinogen clotted with thrombin, ultrafiltrate (HYYDDTDEEERIVSTVDAR)
- competition / cross-reaction with FPB antiserum (in words) [4]: did not compete

Substance: native human FPB: FPB derived from purified human fibrinogen clotted with thrombin, ultrafiltrate (QGVNDNEEGFFSAR)
- competition / cross-reaction with FPB antiserum (in words) [4]: effective competitive inhibitor

Substance: QGVNDNEEGFFSA [des-arg FPB, degradation product formed as FPB is exposed to carboxypeptidases in normal plasma]
- IC50 [4]: 8.9 nM
- cross-reactivity, defined as IC50 of FPB divided by IC50 of competitor times 100 [4]: 75%

Continued, in another order:

- cross-reactivity, defined as IC50 of FPB divided by IC50 of competitor times 100 [4]: < 0.1%
Substance: FPA: short amino acid sequence at the amino terminus of the alpha chain of fibrinogen (ADSGEGDFLAEGGGVR)

- IC50 [4]: 2.3 nM
Substance: fibrinogen: purified human fibrinogen, used as ELISA competitor and for transfusion of dogs
- competition / cross-reaction with FPB antiserum (in words) [4]: significant cross-reaction; also recorded: significant cross-reactivity

- IC50 [4]: 6.7 nM
Substance: QGVNDNEEGFFSAR [FPB, human fibrinopeptide B, cleaved by thrombin from the beta-chains of fibrin I]
